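Growth conditions: 96-well plates. Treatment: test compound, 48 hours, 5 concentrations. Analysis: linear interpolation between bracketing concentrations; unreached endpoints set to highest concentration. TGI: total growth inhibition.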
Key:
Assay in all cases: NCI-60 cell line screen, 48 h
[1] = test system: NCI-H226 lung
[2] = test system: HOP-18 NSCLC
[3] = test system: SF-295 CNS
[4] = test system: UO-31 renal
[5] = test system: ACHN renal
[6] = test system: SK-MEL-2 melanoma
[7] = test system: OVCAR-3 ovarian
[8] = test system: UACC-257 melanoma
[9] = test system: SN12C renal
[10] = test system: KM20L2 colon
[11] = test system: M19-MEL melanoma
[12] = test system: EKVX NSCLC
[13] = test system: KM12 colon
[14] = test system: SNB-19 CNS
[15] = test system: RXF-631 renal
[16] = test system: OVCAR-4 ovarian
[17] = test system: OVCAR-8 ovarian
[18] = test system: LOX IMVI melanoma
[19] = test system: CCRF-CEM leukemia
[20] = test system: HCT-15 colon
[21] = test system: M14 melanoma
[22] = test system: SNB-75 CNS
[23] = test system: SK-OV-3 ovarian
[24] = test system: A549 NSCLC
[25] = test system: HCC-2998 colon
[26] = test system: SF-268 CNS
[27] = test system: RPMI-8226 leukemia
[28] = test system: A498 renal
[29] = test system: HCT-116 colon
[30] = test system: DMS 273 small cell lung
[31] = test system: NCI-H460 lung
[32] = test system: HT29 colon
[33] = test system: DLD-1 colon
[34] = test system: UACC-62 melanoma
[35] = test system: NCI-H23 lung
[36] = test system: MALME-3M melanoma
[37] = test system: K-562 leukemia
[38] = test system: 786-0 renal
[39] = test system: IGROV1 ovarian
[40] = test system: SNB-78 CNS
[41] = test system: SK-MEL-5 melanoma
[42] = test system: COLO 205 colon
[43] = test system: HOP-92 NSCLC
[44] = test system: SK-MEL-28 melanoma
[45] = test system: CAKI-1 renal
[46] = test system: HOP-62 NSCLC
[47] = test system: TK-10 renal
[48] = test system: SW-620 colon
[49] = test system: U251 CNS
[50] = test system: SF-539 CNS
[51] = test system: XF 498 CNS
[52] = test system: OVCAR-5 ovarian
[53] = test system: DMS 114 small cell lung
[54] = test system: HL-60(TB) leukemia
[55] = test system: SR leukemia
[56] = test system: NCI-H522 lung
[57] = test system: RXF 393 renal
[58] = test system: MOLT-4 leukemia
[59] = test system: LXFL 529 NSCLC

Measured: TGI

CCOCN1COCN(C)C1=O
not listed: [53] | [54] | [55] | [56] | [57] | [58] | [59]
> 100 µM: all other assays above

COC(=O)/C([Se]c1c(C)cc(C)cc1C)=C(/[Se]c1c(C)cc(C)cc1C)C(=O)OC
not listed: [44] | [51]
> 100 µM: all other assays above

O=C1Sc2ccccc2C(=O)N2CSCC12 (stereo not given)
not listed: [15] | [16] | [20] | [28] | [45] | [52]
> 100 µM: all other assays above

CCN(CC)CCCNC(=O)c1ccc([N+](=O)[O-])cc1O
not listed: [2] | [11] | [27] | [29] | [51] | [55]
> 100 µM: all other assays above

Reference: PubChem BioAssay (NCI)
